# Assay results from publication PMC4585962, “A peptide factor secreted by Staphylococcus pseudintermedius exhibits properties of both bacteriocins and virulence factors” (Scientific Reports, 2015).
# “Also recorded” adds a separate entry of the source. No end group written: not given here. *: point of attachment. For = O=C*
# Legend:
# [1] = test system: S. aureus; assay: Bactericidal test, plating on TSA after incubation; format: cell-based, Staphylococcus aureus; details: 1 × 10^4 CFU incubated with 1 μM bacteriocin for 30 minutes (data not shown)
# [2] = target: T1, V8 peptidase (Staphylococcus aureus, UniProt P0C1U8); assay: Susceptibility to proteolysis, residual bactericidal activity; format: in vitro ADME, S. aureus; details: 30 μM peptide, 100 mM sodium phosphate pH 7.8, enzyme:peptide 1:50 or 1:10 (w/w), 3 hours, 37 °C; residual activity by radial diffusion assay on B. subtilis; triplicate
# T1 construct: purchased Biocentrum
# Procedure: (§1) The bactericidal activity of BacSp222 was also determined using the radial diffusion assay. In TSB agar (1%, w/v) containing a 200× diluted overnight culture of Bacillus subtilis ATCC 6633, wells of 2.4-mm diameter were created by drilling out the agar and filling the hole with 10 μl of the BacSp222 preparation for testing. Following overnight incubation at 37 °C, the bactericidal activity was measured as the area of the inhibition zones.
# (§2) The temperature stability of BacSp222 (30 μM final concentration) was determined in PBS. The solution was incubated for 1 or 3 h at 72 °C (typical temperature of pasteurization) or at 100 °C. Independently, a solution of bacteriocin was also subjected to a full cycle of autoclaving (20 min at 121 °C). The susceptibility of BacSp222 to proteolysis was verified using S. aureus staphopain C and V8 peptidase, human neutrophil elastase, human cathepsin G (Biocentrum), bovine TPCK-treated trypsin, pepsin from porcine gastric mucosa (Sigma), and proteinase K (A&A Biotechnology). […] The residual activity was determined with the radial diffusion assay using Bacillus subtilis as an indicator strain. […]
# [3] = test system: staphopain C (StpC); assay: as above; format: in vitro ADME, S. aureus; details: 30 μM peptide, 100 mM Tris-HCl pH 7.5 with 5 mM cysteine hydrochloride and 5 mM EDTA, enzyme:peptide 1:50 or 1:10 (w/w), 3 hours, 37 °C; residual activity by radial diffusion assay on B. subtilis; triplicate
# Procedure: as §1, §2
# [4] = test system: HSF cells; assay: Cell membrane integrity, propidium iodide / FDA fluorescence microscopy; format: cell-based, human; details: media contained 0.5 or 15 μM BacSp222 (concentration of these values not stated), three independent experiments ± SD
# [5] = target: T2, FPRL-1 (Homo sapiens, UniProt P25090); assay: Formyl peptide receptor assay, cAMP-GLO, recombinant CHO-K1 cells; format: cell-based; details: 10 pM–5 μM BacSp222, CHO-K1 cells overexpressing FPRL-1, cAMP-GLO; fMLP positive control (data not shown)
# T2 construct: host or cells: CHO-K1
# Procedure: Activation of the cellular formyl-peptide receptor was assayed using cAMPZen FroZen N-formyl peptide (FPRL1) human recombinant CHO-K1 cells (Perkin-Elmer) and a cAMP-GLO bioluminescent assay (Promega) largely according to the protocols provided by the manufacturers. Formyl-methionyl-leucyl-phenylalanine peptide (fMLP, Sigma) was used as a positive control, and the BacSp222 concentrations tested were 0.01, 0.1, 1.0, 10, 100, 1000, and 5000 nM.
# [6] = test system: P388D1 cells; assay: NO synthesis (nitrite, Griess reagent); format: cell-based, murine; details: 24 h
# Procedure: (§3) The murine monocyte/macrophage cell line P388/D1 and murine macrophage-like cell line RAW264.7 were grown in a 96-well plate in DMEM supplemented with 5% (v/v) FBS. Prior to the experiment, the medium was replaced with fresh DMEM enriched with 2% (v/v) of FBS (negative control) or supplemented with 1) 100 ng/ml lipopolysaccharide (LPS, Sigma), 2) 10 ng/ml IFN [drawing 9] (R&D Systems), 3) 0.01–1000 nM BacSp222, or 4) BacSp222 combined with LPS or IFN [drawing 10] . The cells were then cultured for another 24 h to induce iNOS expression and nitric oxide synthesis. The nitrite levels were measured in culture medium by a nitrate assay performed on a microplate. One hundred microliters of cultured media was incubated with 100 μl of Griess reagent (1% (w/v) sulphanilic acid/0.1% (w/v) N-(1-naphtyl) ethylenediaminedihydrochloride (Sigma) in 2.5% (v/v) H3PO4) at room temperature for 10 min. Then, the absorbance was measured at 545 nm using a microplate reader (PowerWave X, BioTek Instruments). Before use, the solution of BacSp222 was tested for LPS contamination using an E-TOXATE assay kit (Sigma). The measurements ascertained that the level of LPS in 1 μM bacteriocin solution was equal to or less than 3 pg/ml.
# [7] = test system: RAW264.7 cells; assay: NO synthesis (nitrite, Griess reagent); format: cell-based, murine; details: 24 h
# Procedure: as §3
# [8] = 0.01–1000 nM BacSp222 with LPS 100 ng/ml
# [9] = nanomolar concentrations of BacSp222 with IFNγ 10 ng/ml
# T2 sequence (P25090 whole entry): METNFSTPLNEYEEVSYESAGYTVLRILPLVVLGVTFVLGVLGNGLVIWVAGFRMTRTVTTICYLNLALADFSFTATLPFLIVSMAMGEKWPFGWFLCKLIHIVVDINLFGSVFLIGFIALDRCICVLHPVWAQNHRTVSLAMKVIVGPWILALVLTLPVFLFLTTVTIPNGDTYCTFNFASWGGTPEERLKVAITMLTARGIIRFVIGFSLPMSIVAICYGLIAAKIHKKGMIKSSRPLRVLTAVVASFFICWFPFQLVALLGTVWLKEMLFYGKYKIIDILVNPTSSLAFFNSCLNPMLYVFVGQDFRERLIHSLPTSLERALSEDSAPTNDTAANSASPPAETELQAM
# T1 sequence (P0C1U8 69-336): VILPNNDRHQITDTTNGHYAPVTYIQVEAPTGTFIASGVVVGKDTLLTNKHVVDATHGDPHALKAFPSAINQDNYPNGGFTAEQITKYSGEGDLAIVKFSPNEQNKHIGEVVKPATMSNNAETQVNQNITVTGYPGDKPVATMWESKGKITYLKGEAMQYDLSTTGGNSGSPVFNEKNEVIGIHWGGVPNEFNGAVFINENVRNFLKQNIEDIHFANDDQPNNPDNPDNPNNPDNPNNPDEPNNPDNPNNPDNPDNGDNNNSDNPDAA
substance,measurement,setting,value
For-MAGLLRFLLSKGRALYNWAKSHVGKVWEWLKSGATYEQIKEWIENALGWR [BacSp222],colonies after plating on TSA,[1],complete absence of the colonies
same,activity of BacSp222 after incubation with the enzyme,[2],not significantly reduced
same,activity of BacSp222 after incubation with the enzyme,[3],not significantly reduced
same,PI-positive cells,[4]; 0.5 hours of incubation,39 ± 13.5%
same,PI-positive cells,[4]; 2 hours of incubation,74 ± 6.7%
same,PI-positive cells,[4]; 4 hours of incubation,97 ± 3.7%
same,stimulation of formyl-peptide receptor,[5],not able to stimulate; also recorded: did not activate
same,effect on LPS-induced NO production,[6]; [8],did not affect
same,NO production after exposure to BacSp222 alone,"[6]; at 100 and 1000 nM, DMEM 2% FBS, nitrite at 545 nm",able to produce NO
same,NO release with BacSp222 together with IFNγ,[6]; [9],released NO in a dose-dependent manner
same,effect on LPS-induced NO production,[7]; [8],did not affect
same,NO production after exposure to BacSp222 alone,"[7]; 0.01–1000 nM, DMEM 2% FBS, nitrite at 545 nm",Only P388D1 cells were able to produce NO
same,NO release with BacSp222 together with IFNγ,[7]; [9],released NO in a dose-dependent manner
